US6399590B2, “Phosphoglycolipid and methods for its use” (Corixa Corporation, priority 1998, dated 2002)

Experiments:
[1] = system: rabbit model of regional myocardial ischemia; experiment: Infarct size in rabbits, 30 min coronary occlusion and 3 h reperfusion; type: in vivo, New Zealand white rabbits
Method: Male New Zealand white rabbits weighing 2.5-3.5 kg were injected with vehicle or L34 24 h before the experiment. L34 was formulated in vehicle composed of 40% propylene glycol, 10% ethanol in water. For the experiment, animals were intramuscularly anesthetized with ketamine (35 mg/kg) and xylazine (5 mg/kg). Tracheotomy was performed and the animals intubated with a cuffed endotracheal tube (Portex, 4.0 mm internal diameter) and then mechanically ventilated with room air on a positive pressure respirator Q Industries, Mobile, Ala.). Ventilatory rate was 27-35 breaths per min, and tidal volume was approximately 10-17 ml. […] The EKG was recorded throughout the experiment via lead II of the standard elctrocardiogram. […]
At the end of each experiment, the ligature around the large marginal branch of the circumflex artery was retightened to reocclude the artery and approximately 4 ml of 10% Evans blue dye was injected into the jugular vein until the eyes turned blue. […] The area at risk was determined by negative staining and calculated as a percentage of the portion of left ventricle containing the risk area (AAR/LV %) and infarct size as a percentage of area at risk (IS/AAR %). […] Regions of infarcted tissue and the risk zone were determined by computer morphometry using Bioquant imaging software and the percentage of infarcted area and risk area calculated.

[2] = system: IL-8 secretion by THP-1 cells; experiment: IL-8 secretion in THP-1 cells (ELISA); type: cell-based, human; conditions: any concentration between 1 ng/ml and 10 μg/ml; supernatants at 4, 16 and 24 hours
Method: The human myelomonocytic cell line THP-1 is commonly used for the analysis of the proinflammatory status of various compounds. THP-1 cells (American Type Culture Collections Cat. No. 202-TIB) were grown in RPMI 1640, 10% heat inactivated fetal bovine serum (FBS) and […] β-mercaptoethanol to a cell density of between 4×10^5/ml and 7×10^5/ml. Cells were removed from culture and resuspended at 1×10^6 cells/ml in RPMI 1640 containing 5% fetal bovine serum. Resuspended cells were then pipetted into sterile, disposable polystyrene 150×25 mm petri dishes and treated with the natural maturational agent 1α, 25-dihyroxyvitamin D3 at 1×10^−7 M between 24 and 72 hours depending on the degree of maturation desired. These maturationally “pretreated” cells were then washed 3× in RPMI 1640 containing more than 2% but less than 10% fetal bovine serum. After the third wash cells were resuspended in RPMI 1640 containing 5% FBS plus 2% human AB sera (Irvine Scientific) at 5×10^5 cells/ml and transferred at 2 ml per well in a tissue culture grade, flat bottom polystyrene 24 well plate. […] Cytokine concentration in the THP-1 culture supernatants were quantified using standard human cytokine ELISA kits from R&D Laboratories. […]

[3] = system: Mongrel dogs, LAD occlusion/reperfusion; experiment: Infarct size in dogs with bolus plus drug infusion; type: in vivo, dog; conditions: FIG. 3
Method: Mongrel dogs weighing 16-24 kg were randomly assigned to one of four groups: vehicle control; L34 high dose bolus plus infusion; L34 low dose bolus plus infusion and L34 bolus only. Animals in the L34 high dose bolus plus infusion group received an intravenous bolus injection of 70 μg/kg L34 formulated in vehicle (40% propylene glycol and 10% ethanol in water) and diluted in 5% dextrose in water to a final volume of 10 ml immediately followed by 40 μg/kg/h infusion of the drug beginning three hours prior to occlusion. The low dose bolus plus infusion group of dogs were bolus dosed with 35 μg/kg of drug followed immediately thereafter by infusion of drug at a dose of 4.0 μg/kg/h. […]
After stabilization, animals underwent a 60 min period of occlusion. Heart rate and arterial pressures were monitored at baseline, immediately before the sustained occlusion, and at 10 min after the onset of occlusion. […] The severity of ischemia was assessed in all dogs by measurement of RMBF at 10 min after the onset of LAD occlusion.
At the end of 3 h reperfusion the LAD was reoccluded and UNISPERSE® blue pigment (0.25-0.5 ml/kg) was injected into the coronary vasculature via the left atrial catheter to delineate the in vivo boundaries of the occluded LAD bed, and, with animals under deep anesthesia, cardiac arrest was produced by intracardiac injection of KCl. […] RMBF was then quantified using standard methods.

## CCCCCCCCCCCCCCCCCC(=O)O[C@H](CCCCCCCCCCC)CC(=O)N[C@H]1[C@H](OC[C@H]2OC(O)[C@H](NC(=O)C[C@@H](CCCCCCCCCCC)OC(=O)CCCCCCCCCCCCCCC)[C@@H](O)[C@@H]2O)O[C@H](CO)[C@@H](OP(=O)(O)O)[C@@H]1OC(=O)C[C@@H](CCCCCCCCCCC)OC(=O)CCCCCCCCCCCCC (stereo partly drawn) [L34, 2-Deoxy-6-O-[2-deoxy-4-O-phosphono-3-O-[(R)-3-tetradecanoyloxytetradecanoyl]-2-[(R)-3-octadecanoyloxytetradecanoylamino]-β-D-glucopyranosyl]-2-[(R)-3-hexadecanoyloxytetradecanoylamino]-D-glucopyranose]
[1]; 35 μg/kg given 24 h before ischemia, FIG. 1
  reduction in infarct size (percentage of area at risk) compared to controls: approximately 70%
[1]; doses of 10 to 35 μg/kg given 24 h before ischemia, FIG. 2
  reduction in infarct size, dose response: > 50%
[2]
  IL-8 secretion: did not induce detectable
[3]; 70 μg/kg bolus only, 3 h before occlusion
  infarct size as ratio of area of necrosis (AN) to area at risk (AR): no reduction in infarct size
[3]; bolus (70 or 35 μg/kg) plus infusion (40 or 4.0 μg/kg/h) beginning 3 h prior to occlusion
  infarct size as ratio of area of necrosis (AN) to area at risk (AR): statistically significant reduction in infarct size
